Laboratory results reported in patent publication US20060122281A1, “Regimen for treating prostate tissue and surgical kit for use in the regimen” (AMS Research Corporation, priority 2001, published 2006).
Where “and” joins values, the source holds several entries; their conditions need not be identical. Equal entries are not always repeated.

Key:
[1] = test system: Human patients exhibiting symptoms of BPH; assay: Prostate size by MRI after transurethral ethanol ablation with coadministered bicalutamide; format: in vivo; conditions: individual patient
Method: (§1) Measurements of each patient's prostate size were obtained prior to ethanol ablation by MRI. Flowmetry measurements were also taken.
(§2) Each patient was then administered ethanol ablation therapy by transurethral injection directly into prostate tissue, as summarized in Table 1. Total amount of ethanol injected ranged from about 22% to about 38% relative to the volume of the patient's prostate. The number of injection sites ranged from 3 to 11; the average number of injection sites was 5.8. Following ethanol ablation therapy, each patient was administered bicalutamide, 150 mg orally each day for sixty days, beginning on the day of treatment.
(§3) A three-month and six-month follow-up examination was done for each patient to evaluate prostate size and flowmetry results.

[2] = test system: Human patients exhibiting symptoms of BPH; assay: Flowmetry after transurethral ethanol ablation with coadministered bicalutamide; format: in vivo; conditions: individual patient
Method: as §1, §2, §3

[3] = test system: Human patients exhibiting symptoms of BPH; assay: International Prostate Symptom Score questionnaire; format: in vivo; conditions: individual patient
Method: as §2, with “Measurements of each patient's prostate size were obtained prior to ethanol ablation by MRI. Flowmetry measurements were also taken. Each” for “Each”, “treatment. Survey data was also acquired pre-treatment and at the three-month and six-month followups. Patients were evaluated for subjective symptom severity using an International Prostate Symptom Score questionnaire.” for “treatment.”

[4] = dosages up to 200 mg per day, long-term clinical trials; cited from earlier work
[5] = test system: prostate weight; conditions: compared with antiandrogens presently used; cited from earlier work

SMILES | Post-treatment Evaluation (3 months) Size ([1]; 3 months after transurethral ethanol ablation plus bicalutamide 150 mg orally each day for sixty days) | Post-treatment Evaluation (6 months) Size ([1]; 6 months after transurethral ethanol ablation plus bicalutamide 150 mg orally each day for sixty days) | Post-treatment Evaluation (3 months) Qmax ([2]; maximum flow rate, 3 months after ethanol ablation plus bicalutamide 150 mg orally daily for sixty days) | Post-treatment Evaluation (6 months) Qmax ([2]; maximum flow rate, 6 months after ethanol ablation plus bicalutamide 150 mg orally daily for sixty days) | Post-treatment Evaluation (3 months) Qmed ([2]; median flow rate, 3 months after ethanol ablation plus bicalutamide 150 mg orally daily for sixty days) | Post-treatment Evaluation (6 months) Qmed ([2]; median flow rate, 6 months after ethanol ablation plus bicalutamide 150 mg orally daily for sixty days) | IPSS at 3 months ([3]; 3 months after ethanol ablation plus bicalutamide 150 mg orally daily for sixty days) | IPSS at 6 months ([3]; 6 months after ethanol ablation plus bicalutamide 150 mg orally daily for sixty days) | tolerability [4] | potency in reducing prostate weight [5]
CC(O)(CS(=O)(=O)c1ccc(F)cc1)C(=O)Nc1ccc(C#N)c(C(F)(F)F)c1 (racemic) [bicalutamide, (+−) N-[4-cyano-3-(trifluoromethyl)phenyl]-3-[(4-fluorophenyl)sulfonyl]-2-hydroxy-2-methyl propanimide] | 40 g (2×) and 36 g and 28 g and 30 g (2×) and 25 g and 78 g (2×) and 63 g and 45 g and 42 g and 54 g and 98 g and 15 g | 28 g (2×) and 30 g and 20 g (3×) and 21 g (2×) and 19 g (2×) and 32 g and 18 g (2×) and 27 g and 23 g | 18 mL/sec (2×) and 7 mL/sec and 4 mL/sec and 12 mL/sec (2×) and 11 mL/sec (2×) and 17 mL/sec (2×) and 13 mL/sec (2×) and 15 mL/sec and 10 mL/sec and 21 mL/sec | 18 mL/sec and 13 mL/sec (2×) and 19 mL/sec and 15 mL/sec (4×) and 14 mL/sec and 30 mL/sec and 17 mL/sec (2×) and 12 mL/sec and 20 mL/sec and 21 mL/sec | 11 mL/sec and 3 mL/sec (2×) and 4 mL/sec and 7 mL/sec (4×) and 5 mL/sec (3×) and 8 mL/sec and 2 mL/sec (2×) and 9 mL/sec | 11 mL/sec (3×) and 10 mL/sec (4×) and 9 mL/sec (5×) and 13 mL/sec and 8 mL/sec and 5 mL/sec | 10 (2×) and 4 (2×) and 8 (2×) and 24 and 9 and 21 and 14 and 15 and 13 and 3 and 20 and 18 | 9 (2×) and 6 and 8 (4×) and 14 and 12 (2×) and 7 and 10 and 3 and 20 and 4 | well-tolerated | 
CC1(C)C(=O)N(c2ccc(C#N)c(C(F)(F)F)c2)C(=O)N1CC#N [RU 58642] |  |  |  |  |  |  |  |  |  | more potent
